Reference: patent US20130064794A1, “Substituted Carbonyloxymethylphosphoramidate Compounds and Pharmaceutical Compositions for the Treatment of Viral Infections” (IDENIX PHARMACEUTICALS, INC., priority 2011, published 2013)

Key:
[1] = Stability in simulated intestinal fluid (SIF); assay type: in vitro ADME; details: 100 μM, 2 hours at 37° C.
Method: Simulated gastric and intestinal fluids containing pepsin and pancreatin respectively were prepared according to the U.S. Pharmacopoeia USP291 procedure (www.pharmacopeia.cn/v29240/usp29nf24s0_ris1s126.html). Test compound (final concentration 100 μM) was incubated in duplicate in the appropriate fluid for 2 hours at 37° C. The samples were quenched with 200 μl cold acetonitrile, vortexed for 30 seconds and then centrifuged at 16,100 g for 10 min. The supernatants were analyzed by HPLC on a C-18 column with UV detection at 252 nm. The time 0 samples were prepared by adding SGF or SIF fluid to the quenching solvent followed by the test compound. Stability of the compound was determined by peak area the test compound after incubation and calculated as percent of the peak area observed at time zero.

[2] = Stability in human liver microsomes (HLM); assay type: in vitro ADME; details: 10 μM, 1.0 mg/mL protein, NADPH, 60 min
Method: (§1) Stability of Compound 1 and its diastereomer were determined in subcellular fractions (microsomes and S9) of human liver and intestine in duplicate for each matrix. Pooled liver and intestinal microsomal, intestinal and liver S9 proteins (1.0 mg/mL), suspended in incubation buffer (100 mM potassium phosphate, pH 7.4, 5 mM MgCl2, and 0.1 mM EDTA), were preincubated for 5 min at 37° C. with 10 μM of a test compound from a 10 mM stock solution in DMSO (final DMSO concentration was 0.1%); the reaction was initiated by the addition of NADPH (3 mM final concentration). At specific times (0 and 60 min), 0.1 mL samples were taken and the reaction terminated by the addition of 4 volumes of stop solution (acetonitrile with 500 ng/mL carbutamide as an internal standard). The samples were vortexed for 30 sec and then centrifuged at 16,000 g for 10 min. 100 μL of supernatants were transferred to 96 deep-well plates preloaded with 100 μL distilled water and analyzed after mixing by LC-MS/MS. The MS peak area ratio of the test compound versus the internal standard was calculated and percent unchanged test compound over 60 minutes was calculated using this ratio.

[3] = Stability in human intestinal microsomes (HIM); assay type: in vitro ADME; details: 10 μM, 1.0 mg/mL protein, NADPH, 60 min
Method: as §1

[4] = Stability in human liver S9 fraction (HLS9); assay type: in vitro ADME; details: 10 μM, 1.0 mg/mL protein, NADPH, 60 min
Method: as §1

[5] = tested on: mouse hepatocytes; test: Release of active metabolite in mouse hepatocytes; assay type: in vitro ADME; details: 10 μM test compound
Method: Plates of fresh human and mouse hepatocytes were obtained on ice. The medium was removed and replaced with hepatocyte culture medium (William's E supplemented with penicillin-streptomycin, 1% L-glutamine, 1% insulin-transferrin-selenium and 0.1 μM Dexamethasone (Invitrogen) or with Invitro GRO HI medium complemented with Torpedo antibiotics (Celsis)). Cells were left overnight in an incubator at 37° C. to acclimatize to culture and the medium.
Hepatocyte incubations were conducted at a final volume of 0.5 mL hepatocyte culture medium/well (0.8 million cells/well for human and 0.5 million cells/well for mouse; 12 well plate no overlay, collagen coat). Culture medium from overnight incubation of cells was removed and replaced with fresh medium, pre-warmed to 37° C., containing 10 μM of the test compound from a stock solution in DMSO (final DMSO concentration was 0.1%). At each specific time point, incubation medium was removed and cell monolayers were carefully washed two times with ice-cold PBS. Following the last wash, all PBS was carefully removed and 1.0 mL of extraction solution (ice-cold 70% methanol/30% water) added. Cells were scraped off and suspended in the extraction solution, transferred to 2 mL polypropylene microfuge tubes and intracellular contents extracted overnight at −20° C.
After the overnight treatment the cellular extracts were prepared by centrifugation at 16,000×g for 10 min to remove cellular debris. The remaining sample was then dried using a refrigerated centrivap concentrator. Dry extracts were reconstituted in 1000 μL of HPLC-grade water and centrifuged at 16,000×g for 10 min. Aliquots (100 μL each) of the supernatant were transferred into a 96 well plate and 2′-C-methyl-adenosine 5′-triphosphate, trisodium salt (4 ng/mL final concentration) was added as the internal standard (1S) for LC-MS/MS analysis.
The incubation time points were 6, 24 and 48 hours for human hepatocytes and 1, 4, 8, 12 and 24 hours for mouse hepatocytes.

[6] = Plasma and liver pharmacokinetics following a single oral dose in CD-1 mice; assay type: in vivo; details: single oral dose in PEG 200, value at 1 μmol/kg; for Ms 2′-F, 2′-MeGTP AUC: mouse liver; for Ms Plasma 2′-F, 2′-MeG AUC / Ms Plasma 2′-F, 2′-MeG Cmax: mouse plasma
Method: A single oral dose of Compound 1 at 25 mg/kg in PEG 200 (dose volume 5 mL/kg) was administered to nine CD-1 male mice. Five untreated animals were used for the collection of control plasma and liver. Terminal plasma and liver samples were collected from three animals per time point at 4, 12 and 24 hours post dose. Liver specimens were collected from all animals immediately after the incision. Freezing forceps stored in liquid nitrogen were used to freeze the liver before excision.
Plasma samples were analyzed for 2′-methylguanosine (2′-MeG) by LC-MS/MS. The internal standard (1S) was 2′-MeG-D3. For protein precipitation and extraction, each plasma sample (50 μL) was treated with 500 μL of 0.2% formic acid in acetonitrile and 20 μL of the internal standard working solution. After vortexing and centrifugation, 500 μL of the sample extracts were transferred to a new plate, dried under N2 at ˜28° C. and reconstituted with 75 μL of 0.2% FA in water. The extracts were chromatographed on an Aquasil C18 column using a gradient system of 0.2% formic acid in water and acetonitrile. The analytes were detected and quantified by tandem mass spectrometry in positive ion mode on an MDS Sciex API5000 equipped with a Turbo Ionspray® interface. The calibration range was 0.500 (LLOQ) to 200 ng/mL in mouse plasma. The corresponding range for molar units is 1.68 to 673 pmol/mL.
Liver samples were analyzed for the active species 2′-methylguanosine triphosphate (2′-MeGTP) by LC-MS/MS. 2′-F, 2′-MeGTP levels were assayed by homogenizing (on ice) a known weight of mouse liver with 4× volume of 0.95 M trichloroacetic acid (TCA). Internal standard solution was added to the homogenate followed by neutralization with 20% ammonium hydroxide solution and addition of 500 μL 1% formic acid. The tissue samples were extracted by weak anion exchange solid phase extraction (SPE). Post extraction, the eluates were evaporated under nitrogen, followed by reconstitution before injection onto the LC-MS/MS system. The samples were chromatographed on a Luna NH2 column using a gradient system of ammonium acetate (1 mM to 20 mM and pH 8.0 to pH 10.0) in water and acetonitrile (70:30). The analyte was detected and quantified by tandem mass spectrometry in positive ion mode on an API4000 equipped with a Turbo Ionspray® interface. The calibration range was 10 to 10000 pmol/mL in mouse liver homogenate (50 to 50000 pmol/g of mouse liver).

CCOC(=O)OC(C)OP(=O)(N[C@@H](C)C(=O)OC(C)C)OC[C@H]1O[C@@H](n2cnc3c(OC)nc(N)nc32)[C@](C)(F)[C@@H]1O (single isomer, unassigned) [Compound 14]
Percent Remaining, SIF [1]: 39% | Percent Remaining, HLM (1 hr) [2]: 0% | Percent Remaining, HIM (1 hr) [3]: 41% | Percent Remaining, HLS9 (1 hr) [4]: 0.7% | MsH AUC [5]: 8704 pmol.hr/mill cells | MsH Cmax [5]: 7534 pmol/mill cells | Ms 2′-F, 2′-MeGTP AUC [6]: 1900 pmol · hr/g at 1 μmol/kg | Ms Plasma 2′-F, 2′-MeG AUC [6]: 150 pmol · hr/mL at 1 μmol/kg | Ms Plasma 2′-F, 2′-MeG Cmax [6]: 14 pmol/mL at 1 μmol/kg

CCOC(=O)OC(C)OP(=O)(N[C@@H](C)C(=O)OC(C)C)OC[C@H]1O[C@@H](n2cnc3c(OC)nc(N)nc32)[C@](C)(F)[C@@H]1O (single isomer, unassigned) [Compound 15]
Percent Remaining, SIF [1]: 0% | Percent Remaining, HLM (1 hr) [2]: 0% | Percent Remaining, HIM (1 hr) [3]: 54% | Percent Remaining, HLS9 (1 hr) [4]: 0% | MsH AUC [5]: 218 pmol.hr/mill cells | MsH Cmax [5]: 216 pmol/mill cells | Ms 2′-F, 2′-MeGTP AUC [6]: 900 pmol · hr/g at 1 μmol/kg | Ms Plasma 2′-F, 2′-MeG AUC [6]: 130 pmol · hr/mL at 1 μmol/kg | Ms Plasma 2′-F, 2′-MeG Cmax [6]: 16 pmol/mL at 1 μmol/kg
